Assay results as given in patent US12358886B2, “Heterocyclic compounds for use in the treatment of cancer” (Artios Pharma Limited, priority 2019, dated 2025).

Molecular target: Polθ protein (amino acids 2-2590) (Homo sapiens, UniProt O75417)
Assay: Polθ full length enzyme potency assay (PicoGreen)
Conditions: Polθ IC50 (nM), full length N-His, C-term FLAG tagged Polθ, PicoGreen fluorescence, 12 point concentration response

Chain of Polθ protein (amino acids 2-2590) (O75417 2-2590): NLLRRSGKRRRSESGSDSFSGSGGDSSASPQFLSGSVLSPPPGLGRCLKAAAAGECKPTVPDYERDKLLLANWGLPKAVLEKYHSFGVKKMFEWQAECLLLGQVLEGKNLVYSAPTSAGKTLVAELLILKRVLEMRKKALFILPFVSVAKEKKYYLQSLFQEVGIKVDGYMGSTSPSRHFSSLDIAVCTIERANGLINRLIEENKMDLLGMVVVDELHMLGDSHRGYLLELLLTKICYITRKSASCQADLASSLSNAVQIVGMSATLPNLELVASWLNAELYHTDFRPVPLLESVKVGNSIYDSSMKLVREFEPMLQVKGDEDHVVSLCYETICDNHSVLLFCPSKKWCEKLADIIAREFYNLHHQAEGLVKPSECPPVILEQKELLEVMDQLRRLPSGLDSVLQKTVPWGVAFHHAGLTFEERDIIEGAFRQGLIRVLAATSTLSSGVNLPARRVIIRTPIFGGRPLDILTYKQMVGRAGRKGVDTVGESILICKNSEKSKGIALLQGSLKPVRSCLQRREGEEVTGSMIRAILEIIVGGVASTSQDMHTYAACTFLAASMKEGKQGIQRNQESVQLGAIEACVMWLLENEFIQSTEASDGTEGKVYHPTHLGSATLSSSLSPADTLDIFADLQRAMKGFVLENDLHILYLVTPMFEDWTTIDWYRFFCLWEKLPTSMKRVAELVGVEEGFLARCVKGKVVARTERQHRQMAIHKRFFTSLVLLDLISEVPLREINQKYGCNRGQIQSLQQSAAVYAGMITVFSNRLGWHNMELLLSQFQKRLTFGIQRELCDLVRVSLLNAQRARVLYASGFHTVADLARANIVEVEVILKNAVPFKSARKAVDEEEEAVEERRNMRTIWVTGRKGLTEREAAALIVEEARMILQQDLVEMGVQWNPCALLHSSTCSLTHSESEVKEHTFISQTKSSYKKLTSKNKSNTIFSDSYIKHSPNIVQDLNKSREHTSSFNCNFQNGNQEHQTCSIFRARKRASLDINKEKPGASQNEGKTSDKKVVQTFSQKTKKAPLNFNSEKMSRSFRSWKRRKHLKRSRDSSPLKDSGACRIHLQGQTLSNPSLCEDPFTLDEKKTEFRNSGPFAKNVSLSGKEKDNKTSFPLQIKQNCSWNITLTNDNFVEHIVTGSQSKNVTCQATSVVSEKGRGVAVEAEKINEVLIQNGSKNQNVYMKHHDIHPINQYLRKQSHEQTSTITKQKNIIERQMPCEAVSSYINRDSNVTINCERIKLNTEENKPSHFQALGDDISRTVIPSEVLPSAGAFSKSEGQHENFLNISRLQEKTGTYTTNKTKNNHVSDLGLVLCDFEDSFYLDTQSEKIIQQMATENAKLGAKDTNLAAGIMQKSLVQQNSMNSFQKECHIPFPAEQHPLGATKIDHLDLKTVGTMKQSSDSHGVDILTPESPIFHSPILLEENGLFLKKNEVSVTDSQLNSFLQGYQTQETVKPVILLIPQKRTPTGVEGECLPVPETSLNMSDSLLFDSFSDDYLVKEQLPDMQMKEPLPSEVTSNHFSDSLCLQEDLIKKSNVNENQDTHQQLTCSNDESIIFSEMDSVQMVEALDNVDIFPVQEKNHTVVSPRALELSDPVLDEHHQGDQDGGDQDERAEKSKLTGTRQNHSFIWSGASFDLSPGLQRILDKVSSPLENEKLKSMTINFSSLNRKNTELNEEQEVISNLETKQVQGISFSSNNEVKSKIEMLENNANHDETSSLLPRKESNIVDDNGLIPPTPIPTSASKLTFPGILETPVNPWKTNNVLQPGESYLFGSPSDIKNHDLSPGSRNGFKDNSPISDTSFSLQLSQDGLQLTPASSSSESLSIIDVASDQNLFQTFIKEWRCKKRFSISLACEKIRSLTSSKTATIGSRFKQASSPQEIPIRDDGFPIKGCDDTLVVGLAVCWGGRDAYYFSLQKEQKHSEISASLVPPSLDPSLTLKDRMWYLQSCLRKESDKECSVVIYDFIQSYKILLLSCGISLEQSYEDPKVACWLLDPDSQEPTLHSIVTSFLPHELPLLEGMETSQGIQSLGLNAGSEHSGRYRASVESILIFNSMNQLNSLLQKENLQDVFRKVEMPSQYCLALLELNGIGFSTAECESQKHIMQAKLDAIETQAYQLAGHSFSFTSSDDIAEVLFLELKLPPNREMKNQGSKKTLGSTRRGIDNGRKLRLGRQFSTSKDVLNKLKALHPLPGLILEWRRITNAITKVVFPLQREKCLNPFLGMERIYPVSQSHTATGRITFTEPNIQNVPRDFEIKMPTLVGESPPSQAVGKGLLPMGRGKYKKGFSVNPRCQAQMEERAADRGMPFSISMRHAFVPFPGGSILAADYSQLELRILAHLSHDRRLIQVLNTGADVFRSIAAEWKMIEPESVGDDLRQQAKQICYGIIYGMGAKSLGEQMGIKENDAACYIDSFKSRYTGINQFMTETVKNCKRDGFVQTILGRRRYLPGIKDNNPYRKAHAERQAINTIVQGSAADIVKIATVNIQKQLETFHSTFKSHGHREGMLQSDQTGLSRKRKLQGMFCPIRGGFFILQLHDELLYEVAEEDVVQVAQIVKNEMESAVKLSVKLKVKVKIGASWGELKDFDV

Row | SMILES | IC50 [nM]
1 | CCN(C(=O)[C@@H]1C[C@H](N2CCOC[C@@H]2CO)CN1c1nc(C)cc(C(F)(F)F)c1C#N)c1ccc(F)c(Cl)c1 [Example 152, (2S,4S)-N-(3-Chloro-4-fluorophenyl)-1-(3-cyano-6-methyl-4-(trifluoromethyl)pyridin-2-yl)-N-ethyl-4-((S)-3-(hydroxymethyl)morpholino)pyrrolidine-2-carboxamide] | 26
2 | CCN(C(=O)[C@@H]1C[C@H](N2CCOCC2)C(=O)N1c1cc(C(F)(F)F)cc(C)n1)c1ccc(F)c(Cl)c1 [Example 63, (2S,4S)—N-(3-Chloro-4-fluorophenyl)-N-ethyl-1-(6-methyl-4-(trifluoro-methyl)pyridin-2-yl)-4-morpholino-5-oxopyrrolidine-2-carboxamide] | 410
3 | CCN(C(=O)[C@@H]1C[C@H](O)CN1c1nc(C)cc(C)c1C#N)c1cccc(C)c1 [Example 21, (2S,4S)-1-(3-Cyano-4,6-dimethylpyridin-2-yl)-N-ethyl-4-hydroxy-N-(m-tolyl)pyrrolidine-2-carboxamide] | 77
4 | Cc1cc(C(F)(F)F)cc(N2C(=O)[C@@H](CO)C[C@H]2C(=O)N(C)c2ccc(F)c(Cl)c2)n1 [Example 77, (2S,4R)—N-(3-Chloro-4-fluorophenyl)-4-(hydroxymethyl)-N-methyl-1-(6-methyl-4-(trifluoromethyl)pyridin-2-yl)-5-oxopyrrolidine-2-carboxamide] | 11
5 | CCc1cc(C)nc(N2C(=O)OC[C@H]2C(=O)N(C)c2ccc(F)c(Cl)c2)c1 [Example 119, (S)—N-(3-Chloro-4-fluorophenyl)-3-(4-ethyl-6-methylpyridin-2-yl)-N-methyl-2-oxooxazolidine-4-carboxamide] | 39
6 | CCN(C(=O)[C@@H]1C[C@H](N2CCOC(CO)C2)CN1c1nc(C)cc(C(F)(F)F)c1C#N)c1ccc(F)c(C)c1 (stereo partly drawn) [Example 150, (2S,4S)-1-(3-Cyano-6-methyl-4-(trifluoromethyl)pyridin-2-yl)-N-ethyl-N-(4-fluoro-3-methylphenyl)-4-(2-(hydroxymethyl)morpholino)pyrrolidine-2-carboxamide] | 11

Further lines, results first:

Row | IC50 [nM] | SMILES
7 | 13 | Cc1cc(C(F)(F)F)cc(N2C(=O)N(CCC(=O)N(C)C)C[C@H]2C(=O)N(C)c2ccc(F)c(Cl)c2)n1 [Example 190, (S)—N-(3-Chloro-4-fluorophenyl)-1-(3-(dimethylamino)-3-oxopropyl)-N-methyl-3-(6-methyl-4-(trifluoromethyl)pyridin-2-yl)-2-oxoimidazolidine-4-carboxamide]
8 | 56 | Cc1cc(C(F)(F)F)cc(N2C(=O)[C@@H](O)[C@@H](O)[C@H]2C(=O)N(C)c2ccc3ccn(C)c3n2)n1 [Example 167, (2S,3S,4S)-3,4-Dihydroxy-N-methyl-N-(1-methyl-1H-pyrrolo[2,3-b]pyridin-6-yl)-1-(6-methyl-4-(trifluoromethyl)pyridin-2-yl)-5-oxopyrrolidine-2-carboxamide]
9 | 7 | Cc1cc(C(F)(F)F)cc(N2C(=O)N(CCN3CC(O)C3)C[C@H]2C(=O)N(C)c2ccc(F)c(Cl)c2F)n1 [Example 202, (S)-N-(3-Chloro-2,4-difluorophenyl)-1-(2-(3-hydroxyazetidin-1-yl)ethyl)-N-methyl-3-(6-methyl-4-(trifluoromethyl)pyridin-2-yl)-2-oxoimidazolidine-4-carboxamide]
10 | 19 | Cc1cc(C(F)(F)F)cc(N2C(=O)N(CCN3CC[C@@H](O)C3)C[C@H]2C(=O)N(C)c2ccc(F)c(Cl)c2)n1 [Example 197, (S)-N-(3-Chloro-4-fluorophenyl)-1-(2-((R)-3-hydroxypyrrolidin-1-yl)ethyl)-N-methyl-3-(6-methyl-4-(trifluoromethyl)pyridin-2-yl)-2-oxoimidazolidine-4-carboxamide]
11 | 15 | CCN(C(=O)[C@@H]1C[C@H](N2CCO[C@@H](CO)C2)CN1c1nc(C)cc(C(F)(F)F)c1C#N)c1ccc(F)c(Cl)c1 [Example 155, (2S,4S)-N-(3-Chloro-4-fluorophenyl)-1-(3-cyano-6-methyl-4-(trifluoromethyl)pyridin-2-yl)-N-ethyl-4-((R)-2-(hydroxymethyl)morpholino)pyrrolidine-2-carboxamide]
